Results on three compounds are retold here after article PMC8881610 (Nature Communications, 2022).

Read-outs that look alike come from different tables or passages of the source. Where a SMILES comes first, the peptide text is derived from it. [ ]: non-standard residue; d: D form. Aib = CC(C)(N)C(=O)O

Common to all, as to type: cell-based
The target in test [1] is T1, GLP-1R (Homo sapiens, UniProt P43220). Kind of test: β-arrestin 2 recruitment (BRET). Set-up: expressed in transfected cells; host or cells: HEK293T. The following applies: HEK-293T, GLP-1R WT, HEK293T. As to the method: (§1) HEK293T cells (3.2 × 10^6 cells/10 cm plate) were grown for 24 h before transiently transfection with 15 μg plasmid containing GIPR, GLP-1R or GCGR tagged with Rluc8 and β-arrestin 2 with a Venus-tag at the N terminus at a ratio of 1:9 by Lipofectamine 3000 transfection reagent. After cells were grown for 24 h, transiently transfected cells were then seeded onto poly-D-lysine coated 96-well culture plates (50,000 cells/well) in DMEM with 10% FBS. Cells were grown for 20 h before incubation in assay buffer (HBSS supplemented with 10 mM HEPES, 0.1% BSA or 0.1% casein, pH 7.4) for 30 min at 37 °C. Coelentrazine-h (Yeasen Biotech) was added to a final concentration of 5 μM for 5 min before bioluminescence resonance energy transfer (BRET) readings were made using an EnVision plate reader (PerkinElmer). BRET baseline measurements were collected for 15 cycles prior to ligand addition. After which, BRET was measured for 55 cycles.

Test [2] has as its target T1, GLP-1R. Kind of test: cAMP accumulation assay, GLP-1R WT, mutant or modified constructs. Set-up: Flag; expressed in transfected cells; host or cells: HEK293T. The note with it: for EC50 / Emax: HEK293T; for Emax: HEK-293T. As to the method:
Human embryonic kidney 293 cells containing SV40 large T-antigen (HEK293T) were cultured in DMEM (Gibco) supplemented with 10% (v/v) fetal bovine serum (FBS, Gibco), 1 mM sodium pyruvate (Gibco) and 100 units/mL penicillin and 100 μg/mL streptomycin at 37 °C in 5% CO2. Chinese hamster ovary (CHO-K1) cells were cultured in F-12 (Gibco) containing 10% FBS, 100 units/mL penicillin and 100 μg/mL streptomycin at 37 °C in 5% CO2. For cAMP and receptor expression assays, HEK293T cells were seeded into 6-well cell culture plates at a density of 7 × 10^5 cells per well. After overnight incubation, cells were transfected with GIPR, GLP-1R or GCGR construct using Lipofectamine 2000 or Lipofectamine 3000 transfection reagent (Invitrogen). For whole-cell binding assay, CHO-K1 cells were seeded into 96-well fibronectin-treated cell culture plates at a density of 3 × 10^4 cells per well. After overnight incubation, cells were transfected with GIPR, GLP-1R or GCGR construct using Lipofectamine 2000 transfection reagent (Invitrogen). Following 24 h culturing, the transfected cells were ready for use.
The human GLP-1R was modified with its native signal sequence (M1-P23) replaced by the HA signal peptide to facilitate receptor expression. To obtain a GLP-1R–Gs complex with good homogeneity and stability, we used the NanoBiT tethering strategy, in which the C terminus of GLP-1R was directly attached to LgBiT subunit followed by a TEV protease cleavage site and a double MBP tag. […] The constructs were cloned into both pcDNA3.1 and pFastBac vectors for functional assays in mammalian cells and protein expression in insect cells, respectively. Other constructs including the full-length and various mutants of human GLP-1R were cloned into pcDNA3.1 vector for cAMP accumulation and whole-cell binding assays.
For GIPR, GLP-1R and GCGR, multi-targeting agonist stimulated cAMP accumulation was measured by a LANCE Ultra cAMP kit (PerkinElmer). After 24 h culture, the transfected cells were seeded into 384-well microtiter plates at a density of 3,000 cells per well in HBSS supplemented with 5 mM HEPES, 0.1% (w/v) BSA or 0.1% (w/v) casein and 0.5 mM 3-isobutyl-1-methylxanthine. The cells were stimulated with different concentrations of peptide agonists for 40 min at RT. Eu-cAMP tracer and ULight^TM-anti-cAMP were then diluted by cAMP detection buffer and added to the plates separately to terminate the reaction. Plates were incubated at RT for 1 h and the fluorescence intensity measured at 620 nm and […] by an EnVision multilabel plate reader (PerkinElmer).
On the technique in general: cAMP levels reflect the balance of adenylyl cyclase and phosphodiesterase activity.

In another test the target is T2, GIPR (Homo sapiens, UniProt P48546).
T2 sequence (P48546 22-466): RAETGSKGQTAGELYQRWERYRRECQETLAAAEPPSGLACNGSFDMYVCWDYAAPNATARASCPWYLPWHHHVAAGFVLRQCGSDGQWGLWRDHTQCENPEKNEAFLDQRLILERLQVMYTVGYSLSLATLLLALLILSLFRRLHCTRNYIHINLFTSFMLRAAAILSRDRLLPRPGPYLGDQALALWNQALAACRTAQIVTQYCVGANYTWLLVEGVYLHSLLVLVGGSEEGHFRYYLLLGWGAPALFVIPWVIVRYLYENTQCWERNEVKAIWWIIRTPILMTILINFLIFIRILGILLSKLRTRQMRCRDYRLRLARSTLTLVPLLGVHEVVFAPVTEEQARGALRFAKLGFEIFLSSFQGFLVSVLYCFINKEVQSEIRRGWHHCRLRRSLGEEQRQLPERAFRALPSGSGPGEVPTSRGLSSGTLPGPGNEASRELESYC
Kind of test: β-arrestin 2 recruitment (BRET). Set-up: expressed in transfected cells; host or cells: HEK293T. The following applies: GIPR WT, HEK293T; for Emax: HEK-293T. The method, then:
as §1, with “After” for “HEK293T cells (3.2 × 10^6 cells/10 cm plate) were grown for 24 h before transiently transfection with 15 μg plasmid containing GIPR, GLP-1R or GCGR tagged with Rluc8 and β-arrestin 2 with a Venus-tag at the N terminus at a ratio of 1:9 by Lipofectamine 3000 transfection reagent. After”

Where [3] appears, read: GLP-1R WT, 0.1% BSA, read-out: cAMP accumulation Emax.
[4] abbreviates: GLP-1R WT, 0.1% casein, read-out: cAMP accumulation Emax.

T1 sequence (P43220 24-463): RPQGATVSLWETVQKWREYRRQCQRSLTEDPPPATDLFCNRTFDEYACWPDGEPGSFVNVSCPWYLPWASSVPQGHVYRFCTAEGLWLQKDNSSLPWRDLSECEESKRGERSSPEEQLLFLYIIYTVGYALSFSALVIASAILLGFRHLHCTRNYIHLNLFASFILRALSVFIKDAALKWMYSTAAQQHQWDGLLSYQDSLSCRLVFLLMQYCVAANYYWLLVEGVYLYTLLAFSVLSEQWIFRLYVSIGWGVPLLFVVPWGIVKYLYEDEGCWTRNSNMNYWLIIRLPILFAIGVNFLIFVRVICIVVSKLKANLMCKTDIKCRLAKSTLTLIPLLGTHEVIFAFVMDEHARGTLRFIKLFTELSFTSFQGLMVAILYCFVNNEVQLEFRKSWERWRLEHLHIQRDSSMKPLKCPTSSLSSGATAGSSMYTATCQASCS

One may read the Emax as the size of the effect at its maximum, as opposed to the concentration needed. Regarding `CC(C)C[C@H](NC(=O)[C@H](CC(C)C)NC(=O)[C@H](Cc1c[nH]c2ccccc12)NC(=O)[C@H](CCC(N)=O)NC(=O)[C@@H](NC(=O)[C@H](Cc1ccccc1)NC(=O)[C@H](CC(=O)O)NC(=O)[C@H](CCC(N)=O)NC(=O)[C@H](C)NC(=O)[C@H](C)NC(=O)[C@H](CCCNC(=N)N)NC(=O)[C@H](CCC(=O)O)NC(=O)[C@H](CC(=O)O)NC(=O)[C@H](CC(C)C)NC(=O)[C@H](Cc1ccc(O)cc1)NC(=O)[C@H](CCCCN)NC(=O)[C@H](CO)NC(=O)[C@H](CCCCN)NC(=O)[C@H](CC(=O)O)NC(=O)[C@H](CO)NC(=O)[C@@H](NC(=O)[C@H](Cc1ccccc1)NC(=O)[C@@H](NC(=O)CNC(=O)[C@H](CCC(N)=O)NC(=O)C(C)(C)NC(=O)[C@@H](N)Cc1c[nH]cn1)[C@@H](C)O)[C@@H](C)O)C(C)C)C(=O)N[C@@H](CC(=O)O)C(=O)NCC(=O)NCC(=O)N1CCC[C@H]1C(=O)N[C@@H](CO)C(=O)N[C@@H](CO)C(=O)NCC(=O)N[C@@H](C)C(=O)N1CCC[C@H]1C(=O)N1CCC[C@H]1C(=O)N1CCC[C@H]1C(=O)N[C@@H](CO)C(N)=O` [Non-lipidated peptide 20] (H-H[Aib]QGTFTSDKSKYLDERAAQDFVQWLLDGGPSSGAPPPS-NH2; N-terminus and C-terminus assumed), the maximal response (Emax) at GLP-1R [1] (0.1% BSA) came out at 65.4 ± 1.04%; on GLP-1R [1] (0.1% casein), 64.3 ± 3.97%; on GLP-1R [2] (setting [3]), 99.7 ± 1.41%; on GLP-1R [2] (setting [4]), 99.2 ± 1.39%. Besides, the EC50 on GLP-1R [2] (GLP-1R WT, 0.1% BSA, read-out: cAMP accumulation pEC50 (converted)) was 2.88 pM. In addition, the “influence on cAMP accumulation vs peptide 20” value on GLP-1R [2] (GLP-1R, 0.1% BSA) is “inappreciably influenced”.
With `CCCCCCCCCCCCCCCC(=O)N[C@@H](CCC(=O)NCCCC[C@H](NC(=O)[C@H](CC(=O)O)NC(=O)[C@H](CO)NC(=O)[C@@H](NC(=O)[C@H](Cc1ccccc1)NC(=O)[C@@H](NC(=O)CNC(=O)[C@H](CCC(N)=O)NC(=O)C(C)(C)NC(=O)[C@@H](N)Cc1c[nH]cn1)[C@@H](C)O)[C@@H](C)O)C(=O)N[C@@H](CO)C(=O)N[C@@H](CCCCN)C(=O)N[C@@H](Cc1ccc(O)cc1)C(=O)N[C@@H](CC(C)C)C(=O)N[C@@H](CC(=O)O)C(=O)N[C@@H](CCC(=O)O)C(=O)N[C@@H](CCCNC(=N)N)C(=O)N[C@@H](C)C(=O)N[C@@H](C)C(=O)N[C@@H](CCC(N)=O)C(=O)N[C@@H](CC(=O)O)C(=O)N[C@@H](Cc1ccccc1)C(=O)N[C@H](C(=O)N[C@@H](CCC(N)=O)C(=O)N[C@@H](Cc1c[nH]c2ccccc12)C(=O)N[C@@H](CC(C)C)C(=O)N[C@@H](CC(C)C)C(=O)N[C@@H](CC(=O)O)C(=O)NCC(=O)NCC(=O)N1CCC[C@H]1C(=O)N[C@@H](CO)C(=O)N[C@@H](CO)C(=O)NCC(=O)N[C@@H](C)C(=O)N1CCC[C@H]1C(=O)N1CCC[C@H]1C(=O)N1CCC[C@H]1C(=O)N[C@@H](CO)C(N)=O)C(C)C)C(=O)O` [Peptide 20], the Emax came to 73.5 ± 1.86% at GLP-1R [1] (0.1% BSA); 81 ± 1.28% on GLP-1R [1] (0.1% casein); 99.24 ± 0.96% on GLP-1R [2] (setting [3]); 98.5 ± 1.33% at GLP-1R [2] (setting [4]); 99.6 ± 1.37% at GLP-1R [2] (GLP-1R WT, read-out: cAMP Emax); 99.6 ± 1.17% on GLP-1R [2] (GLP-1R, n = 4, SEM, read-out: cAMP Emax ± S.E.M.). Moreover, the EC50 was 2.69 pM on GLP-1R [2] (GLP-1R WT, read-out: cAMP pEC50 (converted)) and 1.23 pM on GLP-1R [2] (GLP-1R, n = 4, SEM, read-out: cAMP pEC50 ± S.E.M. (converted)).
Turning to `CC[C@H](C)[C@H](NC(=O)[C@H](CC(C)C)NC(=O)[C@H](Cc1c[nH]c2ccccc12)NC(=O)[C@H](CCC(N)=O)NC(=O)[C@@H](NC(=O)[C@H](Cc1ccccc1)NC(=O)[C@H](C)NC(=O)[C@H](CCCCNC(=O)COCCOCCNC(=O)COCCOCCNC(=O)CC[C@H](NC(=O)CCCCCCCCCCCCCCCCCCC(=O)O)C(=O)O)NC(=O)[C@H](CCC(N)=O)NC(=O)[C@H](C)NC(=O)[C@@H](NC(=O)[C@H](CCCCN)NC(=O)[C@H](CC(=O)O)NC(=O)[C@H](CC(C)C)NC(=O)C(C)(C)NC(=O)[C@@H](NC(=O)[C@H](CO)NC(=O)[C@H](Cc1ccc(O)cc1)NC(=O)[C@H](CC(=O)O)NC(=O)[C@H](CO)NC(=O)[C@@H](NC(=O)[C@H](Cc1ccccc1)NC(=O)[C@@H](NC(=O)CNC(=O)[C@H](CCC(=O)O)NC(=O)C(C)(C)NC(=O)[C@@H](N)Cc1ccc(O)cc1)[C@@H](C)O)[C@@H](C)O)[C@@H](C)CC)[C@@H](C)CC)C(C)C)C(=O)N[C@@H](C)C(=O)NCC(=O)NCC(=O)N1CCC[C@H]1C(=O)N[C@@H](CO)C(=O)N[C@@H](CO)C(=O)NCC(=O)N[C@@H](C)C(=O)N1CCC[C@H]1C(=O)N1CCC[C@H]1C(=O)N1CCC[C@H]1C(=O)N[C@@H](CO)C(N)=O` [Tirzepatide], the EC50 at GIPR (0.1% casein, read-out: β-arrestin 2 recruitment pEC50 (converted)) is 18600 pM. In addition, the Emax on GIPR (0.1% BSA) was determined as 53.4 ± 2.32%; at GIPR (0.1% casein), 53.4 ± 1.93%; on GLP-1R [2] (setting [3]) it was 99.7 ± 1.5%; at GLP-1R [2] (setting [4]), 99.1 ± 1.73%.
